The values that follow are results of earlier work, collected in patent US8858953B2, “Herbal composition for treating cancer” (priority 2011, dated 2014).

This data set deals with Epidermal Growth Factor Receptor (EGFR) mutation lung cancer. To be noted: lung cancer patients with EGFR mutation.

In the case of `C#Cc1cccc(Nc2ncnc3cc(OCCOC)c(OCCOC)cc23)c1` [Erlotinib], the progression free survival entry is recorded as “up to 9 months”.
